Experiment: xn = mol fraction of the nth substance listed

C[N+](C)(C)CCC[n+]1ccccc1.N#C[N-]C#N.N#C[N-]C#N + CC#N
100 kPa
Settings | viscosity [mPa·s]
283.15 K, x1 = 0.7001 | 857
288.15 K, x1 = 0.8997 | 1336
288.15 K, x1 = 1 | 3879
293.15 K, x1 = 0.1999 | 10.8
293.15 K, x1 = 0.3997 | 75.8
293.15 K, x1 = 1 | 2191
298.15 K, x1 = 0.8997 | 561
303.15 K, x1 = 0.0999 | 3
303.15 K, x1 = 0.2998 | 24.3
303.15 K, x1 = 0.7998 | 271
308.15 K, x1 = 0.1999 | 7.71
318.15 K, x1 = 0.2998 | 16
323.15 K, x1 = 0.0999 | 2.43
323.15 K, x1 = 1 | 210
333.15 K, x1 = 0.1999 | 5.08
333.15 K, x1 = 0.6002 | 37.6

C[n+]1ccn(CCCC#N)c1.O=S(=O)([O-])C(F)(F)F + CC#N
101 kPa
Settings | electrical conductivity [S/m] | viscosity [mPa·s]
288.15 K, x1 = 0.1002 | 2.7 | 1.65
288.15 K, x1 = 0.2994 | 1.04 | 16.49
288.15 K, x1 = 0.5 | 0.185 | 109.8
293.15 K, x1 = 0.6005 | 0.22 | 119.8
298.15 K, x1 = 0.7996 | 0.114 | 307
303.15 K, x1 = 0.9007 | 0.082 | 330
303.15 K, x1 = 1 | 0.06 | 422
308.15 K, x1 = 0.2994 | 1.7 | 9.19
308.15 K, x1 = 1 | 0.08 | 310
313.15 K, x1 = 0.2002 | 2.88 | 3.74
313.15 K, x1 = 0.5 | 0.575 | 36.34
313.15 K, x1 = 0.7996 | 0.239 | 133.1
318.15 K, x1 = 0.1002 | 3.76 | 1.06
318.15 K, x1 = 0.5 | 0.679 | 29.94
318.15 K, x1 = 0.698 | 0.351 | 73.7
318.15 K, x1 = 0.9007 | 0.168 | 135
323.15 K, x1 = 0.1002 | 3.95 | 0.99
323.15 K, x1 = 0.6005 | 0.7 | 32.11

NCCN1CCNCC1 + CC(=O)[O-].CCCC[n+]1ccn(C)c1 + O
viscosity [mPa·s], 101 kPa
Settings | 298.15 K | 303.15 K | 308.15 K | 313.15 K | 318.15 K | 323.15 K | 328.15 K | 333.15 K
x2 = 0.03479, x1 = 0.0177 | 3.7 | 3.32 | 3.04 | 2.97 | 2.6 | 2.31 | 2.16 | 1.97
x2 = 0.03897, x1 = 0.01333 | 3.73 | 3.62 | 3.32 | 2.99 | 2.61 | 2.41 | 2.31 | 2.11
x2 = 0.04311, x1 = 0.00893 | 3.76 | 3.66 | 3.32 | 3.02 | 2.64 | 2.48 | 2.34 | 2.21

c1c[nH]cn1 + CC(C)C[P+](C)(CC(C)C)CC(C)C.Cc1ccc(S(=O)(=O)[O-])cc1
Settings | viscosity [mPa·s]
313.09 K, 101.33 kPa, x2 = 0.5 | 181

CC[n+]1ccccc1.N#C[N-]C#N + CC(C)O
100 kPa
Settings | viscosity [mPa·s]
288.15 K, x2 = 0.2997 | 15.1
293.15 K, x2 = 0.1055 | 18
298.15 K, x2 = 0.4023 | 9.28
303.15 K, x2 = 0.5998 | 5.49
308.15 K, x2 = 0.7006 | 3.8
308.15 K, x2 = 0.8997 | 2.27
313.15 K, x2 = 0 | 12.5
313.15 K, x2 = 0.5998 | 4.42
313.15 K, x2 = 0.7006 | 3.43
313.15 K, x2 = 0.8007 | 2.66
318.15 K, x2 = 0.5998 | 3.99
318.15 K, x2 = 0.7006 | 3.11

CCCCCCCC[N+](C)(CCCCCCCC)CCCCCCCC.[Br-] + CCCCCCCCCC(=O)O
100 kPa, x1 = 0.3333
Settings | viscosity [mPa·s]
293 K | 810
298 K | 570
303 K | 410
308 K | 310
333 K | 84

CC[N+](CC)(CC)CC.[Br-] + CCCCCCCCCCCCCCn1cc[n+](C)c1.[Br-] + O
electrical conductivity [S/m], 101 kPa, frequency 0.001 MHz
Settings | 298.15 K | 308.15 K | 318.15 K
x2 = 0, x1 = 1.802e-05 | 0.0115 | 0.0142 | 0.0177
x2 = 0, x1 = 3.604e-05 | 0.0198 | 0.024 | 0.0294
x2 = 0, x1 = 9.009e-05 | 0.0417 | 0.0509 | 0.0613
